Type in all cases: cell-based
Common to all, as to conditions: 100 μg/ml, 3 days incubation

Assay [1] deals with normal human dermal fibroblast cultures. In words: Protein content of fibroblast cell layers (cell division), Coomassie Blue/Bradford. As to the method:
The effects of the product on cell division were evaluated by measuring the DNA and proteins in the cell layers after 3 days of incubation. Fibroblasts were isolated from the operative residue of abdominal plastic surgery carried out on a person. The cells were cultivated in fibroblast culture medium (FCM) at 37° C. in a moist atmosphere containing 5% of CO2 until confluence of the monolayers. The culture medium used was fibroblast culture medium (FCM), constituted by MEM/M199 (¾, ¼, v/v) with added penicillin (50 IU/ml), streptomycin (50 μg/ml), sodium bicarbonate (0.2%, wv/v) and SVF (10%, v/v). The fibroblast incubation medium (FIM) with the products was constituted by MEM/M199 (¾, ¼, v/v) with added penicillin (50 IU/ml), streptomycin (50 μg/ml), sodium bicarbonate (0.2%, w/v) and SVF (2%, v/v). It contained 1 μCi/ml of tritiated proline. The purified lactone fraction was diluted in FIM and was tested at 0.02, 0.08 and 0.4 μg/ml (dry matter). The unrefined sophorolipids were tested at 0.08; 0.4 and 2 μg/ml. The ascorbic acid was tested at 100 μg/ml (0.5 mM) in FIM. The fibroblast cultures were incubated for 3 days at 37° C. in a moist atmosphere containing 5% of CO2. Reference cultures, incubated in the absence of the products to be tested, were produced in parallel. The tests were carried out in triplicate. […]

Assay [2] concerns normal human dermal fibroblasts. The experiment in a line: DNA content of fibroblast cell layers (cell division), HOECHST 33258 fluorimetry. As to the method: The effects of the product on cell division were evaluated by measuring the DNA and proteins in the cell layers after 3 days of incubation. Fibroblasts were isolated from the operative residue of abdominal plastic surgery carried out on a person. The cells were cultivated in fibroblast culture medium (FCM) at 37° C. in a moist atmosphere containing 5% of CO2 until confluence of the monolayers. The culture medium used was fibroblast culture medium (FCM), constituted by MEM/M199 (¾, ¼, v/v) with added penicillin (50 IU/ml), streptomycin (50 μg/ml), sodium bicarbonate (0.2%, wv/v) and SVF (10%, v/v). The fibroblast incubation medium (FIM) with the products was constituted by MEM/M199 (¾, ¼, v/v) with added penicillin (50 IU/ml), streptomycin (50 μg/ml), sodium bicarbonate (0.2%, w/v) and SVF (2%, v/v). It contained 1 μCi/ml of tritiated proline. The purified lactone fraction was diluted in FIM and was tested at 0.02, 0.08 and 0.4 μg/ml (dry matter). The ascorbic acid was tested at 100 μg/ml (0.5 mM) in FIM. The fibroblast cultures were incubated for 3 days at 37° C. in a moist atmosphere containing 5% of CO2. Reference cultures, incubated in the absence of the products to be tested, were produced in parallel. The tests were carried out in triplicate. After incubation, the incubation media were removed then the cell layers were rinsed with PBS The cells were then lysed by ultrasound. The DNA was assayed using a fluorimetric method using HOECHST 33258 reactant. The proteins in the cell lysate were assayed using the Coomassie Blue method described by Bradford. These assays ensured a suitable interpretation of the results obtained for collagen neosynthesis. Treatment of data: the groups of data (reference group and treated groups) were processed by a one-way variance analysis (ANOVA 1, p<0.05) followed by a Dunnett test (p<0.05). The effect of the products was thus compared with the control group.

For assay [3], the system named is normal human dermal fibroblast cultures. In words: Collagen neosynthesis: tritiated proline incorporation into cell layer collagens. The text has this: The effect of purified lactones on the synthesis of collagens in normal human dermal fibroblast cultures was studied. Collagyens are quantitatively the major dermal proteins. Proline and hydroxyproline constitute 30% of the constituent amino acids of collagens (a high percentage and much higher than that of the majority of other fibroblast proteins). Hydroxyproline is not an amino acid incorporated during the synthesis of collagens, as is the case with proline. Hydroxylation of proline, which leads to the presence of hydroxyproline in collagens, is a collagen maturation process which occurs once synthesis is complete. Measuring the incorporation of tritiated proline into fibroblast proteins thus provides a good index of collagen neosynthesis. […] Collagen neosynthesis was measured by monitoring the incorporation of radiolabelled proline into newly synthesised fibroblast proteins. […] Fractions (1) and (2) were measured together and grouped under the title “cell layer collagens”. […] Measurement of incorporation of tritiated proline into “cell layer collagens” the incorporation of tritiated proline into neosynthesised fibroblast proteins, the proteins present in the cells and deposited in the extracellular matrix, was evaluated after 3 days of incubation. The radioactivity of the cell lysate obtained as described above was measured by liquid scintillation with a β particle counter. […]

Assay [4] shares this test system. In words: Collagen neosynthesis: tritiated proline incorporation into secreted collagens (culture medium, >30 kD). From the text: The effect of purified lactones on the synthesis of collagens in normal human dermal fibroblast cultures was studied. Collagyens are quantitatively the major dermal proteins. Proline and hydroxyproline constitute 30% of the constituent amino acids of collagens (a high percentage and much higher than that of the majority of other fibroblast proteins). Hydroxyproline is not an amino acid incorporated during the synthesis of collagens, as is the case with proline. Hydroxylation of proline, which leads to the presence of hydroxyproline in collagens, is a collagen maturation process which occurs once synthesis is complete. […] Collagen neosynthesis was measured by monitoring the incorporation of radiolabelled proline into newly synthesised fibroblast proteins. […] Fractions (1) and (2) were measured together and grouped under the title “cell layer collagens”. […] Measurement of incorporation of tritiated proline into “secreted collagens”: the incorporation of tritiated proline into neosynthesised collagens secreted in the culture medium was evaluated after 3 days of incubation. […] The radioactivity of the high molecular weight protein fraction (retained on the filters) corresponded almost exclusively to the secreted collagens and was measured by liquid scintillation with a β particle counter. […]

Several values for one entry are separate records, joined by “and”; a condition that tells them apart may be missing. Identical values can stand only once. Marks after values point to notes of the source that are not given here.

For the compound `O=C1O[C@H]([C@@H](O)CO)C(O)=C1O` [Ascorbic acid, ascorbic acid], the “Proteins in cell layer” value in assay [1] is 108 % of reference. The “DNA content, percentage of control” value in assay [2] was 90 percentage of control. In assay [2] (mean of triplicate), the “DNA content, mean” value is on record as 7.5 μg/cell layer. Further, the “DNA content, individual culture” value in assay [2] (single replicate) is 10 μg/cell layer and 6 μg/cell layer (2×). Moreover, the Cell layer collagens in assay [3] was 168%* % of control. Moreover, the “Increase of cell layer collagens, factor” value in assay [3] (factor versus control) turned out to be 0.68. Besides, the “Secreted collagens (culture medium)” value in assay [4] was 181%* % of control. For the same compound, the “Increase of secreted collagens, factor” value in assay [4] (factor versus control) is reported as 1.81.
